# Measured values taken from patent publication US5023275A, “S-substituted beta-thioacrylamide biocides and fungicides” (Rohm and Haas Company, priority 1990, dated 1991).
# Where two headings read alike, the source gives them in different places.
# Legend:
# [1] = tested on: Staphylococcus aureus (S.a); assay: Alternate Minimum Inhibitory Concentration test, S.a (Table 7); format: cell-based; conditions: TSB, 72 hours, 30° C.
# Aspergillus niger (A.n) [2] = assay: MIC, broth two-fold serial dilution test, A.n (Table 6); format: cell-based; conditions: two-fold serial dilution in broth, 500 to 4 ppm
# Text: (§1) A minimum inhibitory concentration (MIC) value is obtained using a broth, two-fold serial dilution test performed as follows: […] A volume of the stock solution is dispensed into culture media to give an initial starting test concentration of 500 ppm compound. When the test is ready to be done, each vessel in the dilution series, except the first vessel, contains an equal volume of compound free broth. The first vessel contains twice the volume of broth with the starting concentration of test compound. One half of the broth from the first vessel is transferred to the second vessel. After being mixed, one half the resulting volume is removed from the second vessel and transferred to the third vessel. […] Each vessel is then inoculated with a cell suspension of the appropriate test organism. Bacteria are grown in broth and fungi on agar […] for a time and at a temperature appropriate to the species being tested. At the end of the growth period, the broth is vortexed to disperse the cells. In the case of fungi, the spores are harvested by pipetting water onto the slant and dislodging the spores with a sterile loop. The cell/spore suspension is standardized by controlling incubation time, temperature, and the volume of the diluent. The suspension is then used to inoculate the vessels containing the broth compound. The vessels are then incubated at the appropriate temperature. […]
# Escherichia coli (E.c) [3] = assay: MIC, broth two-fold serial dilution test, E.c (Table 6); format: cell-based; conditions: two-fold serial dilution in broth, 500 to 4 ppm
# Text: as §1
# [4] = tested on: Pseudoperonospora cubensis; conditions: in vivo
# [5] = tested on: Pseudomonas aerugenosa (Ps.ae); assay: Alternate Minimum Inhibitory Concentration test, Ps.ae (Table 7); format: cell-based; conditions: TSB, 72 hours, 30° C.
# Candida albicans (C.alb) = assay: Alternate Minimum Inhibitory Concentration test, C.alb (Table 7); format: cell-based; conditions: TSB, 72 hours, 30° C.
# [6] = tested on: Staphylococcus aureus (S.a); assay: MIC, broth two-fold serial dilution test, S.a (Table 6); format: cell-based; conditions: two-fold serial dilution in broth, 500 to 4 ppm
# Text: as §1
# [7] = tested on: Erysiphe graminis (f. sp. tritici); conditions: in vivo
# [8] = tested on: Aureobasidium pullulans (A.p); assay: Alternate Minimum Inhibitory Concentration test, A.p (Table 7); format: cell-based; conditions: TSB, 72 hours, 30° C.
# [9] = tested on: Pseudomonas aerugenosa (Ps.ae); assay: MIC, broth two-fold serial dilution test, Ps.ae (Table 6); format: cell-based; conditions: two-fold serial dilution in broth, 500 to 4 ppm
# Text: as §1
# Aspergillus niger (A.n) [10] = assay: Alternate Minimum Inhibitory Concentration test, A.n (Table 7); format: cell-based; conditions: TSB, 72 hours, 30° C.
# [11] = tested on: Aureobasidium pullulans (A.p); assay: MIC, broth two-fold serial dilution test, A.p (Table 6); format: cell-based; conditions: two-fold serial dilution in broth, 500 to 4 ppm
# Text: as §1
# [12] = tested on: Pseudomonas fluorescens (Ps.fl); assay: Alternate Minimum Inhibitory Concentration test, Ps.fl (Table 7); format: cell-based; conditions: TSB, 72 hours, 30° C.
# Description: From this solution, 100 μl was transferred to the first row of two microtiter plate columns. […] Inoculation was accomplished by diluting a 24 hr Ps fl culture, four mls per 36 mls of phosphate buffer solution. A Dynatech autoinoculator was used to transfer 1.5 μl of this cell suspension to the microtiter plates.
# Piricularia oryzae = format: in vivo; conditions: rice, 7 to 8 days after inoculation
# [13] = tested on: Puccinia graminis (f. sp. tritici Race 15B-2); format: in vivo; conditions: wheat, two weeks
# [14] = tested on: Pseudomonas fluorescens (Ps.fl); assay: MIC, broth two-fold serial dilution test, Ps.fl (Table 6); format: cell-based; conditions: two-fold serial dilution in broth, 500 to 4 ppm
# Text: as §1
# Escherichia coli (E.c) [15] = assay: Alternate Minimum Inhibitory Concentration test, E.c (Table 7); format: cell-based; conditions: TSB, 72 hours, 30° C.
# Pseudomonas fluorescens = assay: Speed of Kill (SOK) Test, 4 hours (Table 6); format: cell-based; conditions: Ps. fluorescens in synthetic hard water, 30° C., read-out: SOK: concentration at which compound killed >99.999% of the cells
# Text: The Speed of Kill (SOK) Test measures the loss of cell viability in an aqueous suspension of bacterial cells during a four hour period when these cells are contacted with a defined concentration of the test compound in synthetic hard water (SHW). A stock solution or dispersion of the test compound, typically at a concentration of 1%, is made in a 5:3:2 solvent solution of acetone, methanol, and water. The SHW is made by taking one liter of sterile deionized water and adding the following solutions to it:
# 1. 2 ml of a solution of 31.74 g of MgCl2 and 73.99 g of CaCl2 in 1000 ml. of sterile distilled water which has been heat sterilized.
# 2. 4 ml of a solution of 56.03 g of NaHCO3 in 1000 ml of water which has been filter sterilized.
# The combined solution is then filter sterilized to yield the SHW. A volume of the stock solution is dispensed into the SHW to give an initial test compound starting concentration of 500 ppm.
# When the test is ready to be run, each vessel in the dilution series, except the first vessel, contains an equal volume of the SHW mixture with the test compound. The first vessel contains twice the volume of SHW with the starting concentration of test compound. One half of the SHW from the first vessel is transferred to the second vessel. After being mixed, one half the resulting volume is removed from the second vessel and transferred to the third vessel. […]
# Phytophthora infestans = format: in vivo; conditions: tomato, 4 days after inoculation
# [16] = tested on: Puccinia recondita (f. sp. tritici Races PKB and PLD); conditions: in vivo
# [17] = tested on: Pellicularia filamentosa (f. sp. sasiki); conditions: in vivo
SMILES,MIC [1] [µg/mL],% Control CDM [4] [%],MIC [5] [µg/mL],MIC (Candida albicans (C.alb)) [µg/mL],% Control WPM [7] [%],MIC [8] [µg/mL],MIC (Aspergillus niger (A.n) [10]) [µg/mL],MIC [12] [µg/mL],% Control RB (Piricularia oryzae; application rate 100 ppm) [%],MIC (Escherichia coli (E.c) [15]) [µg/mL],% Control TLB (Phytophthora infestans; application rate 100 ppm) [%],% Control RSB [17] [%],% Control WSR ([13]; application rate 300 ppm) [%],% Control TLB (Phytophthora infestans; application rate 300 ppm) [%],% Control RB (Piricularia oryzae; application rate 200 ppm) [%],also measured
"CC(=O)C(S/C(Cl)=C(/C)C(=O)Nc1ccccc1)C(C)=O [Example 5, N-phenyl-2-methyl-3-chloro-cis-3-thio-(1-acetylpropan-2-on-1-yl)acrylamide]",8,49,16 to 31,16,0,16,< 4,16,50,< 4,35,,,,,MIC (Aspergillus niger (A.n) [2]): < 4 µg/mL; MIC (Escherichia coli (E.c) [3]): < 4 µg/mL; MIC [6]: < 4 µg/mL; MIC [9]: 8 µg/mL; MIC [11]: 32 µg/mL; % Control WSR ([13]; application rate 100 ppm): 50%; MIC [14]: < 4 µg/mL; MBC (Pseudomonas fluorescens): < 4 µg/mL
"CC(=O)C(S/C(Cl)=C\C(=O)Nc1ccc(Cl)cc1)C(C)=O [Example 6, N-(p-chlorophenyl)-3-chloro-cis-3-thio-(1-acetylpropan-2-on-1-yl)acrylamide]",,85,,,0,,> 500,> 500,50,,0,0,,,,% Control WLR [16]: 50%
"CC(=O)C(S/C=C\C(=O)NCc1ccccc1)C(C)=O [Example 2, N-benzyl-cis-3-thio-(1-acetylpropan-2-on-1-yl)acrylamide]",31,70,500,31 to 63,0,31,125 to 500,> 500,,63 to 125,,0,40,0,,% Control RB (Piricularia oryzae; application rate 300 ppm): 0%
"CC(=O)C(S/C=C\C(=O)NCCc1ccccc1)C(C)=O [Example 3, N-(beta-phenethyl)-cis-3-thio-(1-acetylpropan-2-on-1-yl)-acrylamide]",63,90,> 500,31,0,8 to 16,63 to 500,> 500,,250,,0,40,20,94,
"CC(=O)C(S/C=C(/C)C(=O)Nc1ccc(Cl)cc1)C(C)=O [Example 7, N-(p-chlorophenyl)-2-methyl-cis-3-thio-(1-acetylpropan-2-on-1-yl)acrylamide]",125,0,> 500,16,60,4 to 8,31 to 63,> 500,50,63 to 125,0,0,,,,% Control WLR [16]: 50%
"CC(=O)C(S/C=C\C(=O)NCc1ccc(Cl)cc1)C(C)=O [Example 4, N-(p-chlorobenzyl)-cis-3-thio-(1-acetylpropan-2-on-1-yl)-acrylamide]",31,95,> 500,63,0,16,31 to 500,> 500,,63,,0,30,15,89,
"CC(=O)C(S/C(Cl)=C(/C)C(=O)Nc1ccc(Cl)cc1)C(C)=O [Example 1, N-(p-Chlorophenyl)-2-methyl-3-chloro-cis-3-thio-(1-acetylpropan-2-on-1-yl)acrylamide]",< 4,100,8,< 4,0,< 4,4 to 8,4 to 16,,< 4,,0,70,90,80,MIC (Aspergillus niger (A.n) [2]): < 4 µg/mL; MIC (Escherichia coli (E.c) [3]): < 4 µg/mL; MIC [6]: < 4 µg/mL; MIC [9]: < 4 µg/mL; MIC [11]: < 4 µg/mL; MIC [14]: < 4 µg/mL; MBC (Pseudomonas fluorescens): 32 µg/mL
